For seven compounds, Ki results are on record in patent US5424312A, “Aminoalkyl-substituted 2-amino-1,3,4-thiadiazoles, the preparation and use thereof” (BASF Aktiengesellschaft, priority 1991, dated 1995).

Structures can show the parent of a compound that is named as a salt.

What is called Ki is the dissociation constant of the complex between target and ligand, obtained from inhibition or displacement.

In one experiment the target is T1, dopamine D2 receptor (Rattus norvegicus, UniProt P61169).
T1 construct: Striata from rats (Sprague Dawley, Charles River) were homogenized immediately after removal; from tissue; host or cells: rat striatum (Sprague Dawley, Charles River), membranes
T1 sequence (P61169 whole entry): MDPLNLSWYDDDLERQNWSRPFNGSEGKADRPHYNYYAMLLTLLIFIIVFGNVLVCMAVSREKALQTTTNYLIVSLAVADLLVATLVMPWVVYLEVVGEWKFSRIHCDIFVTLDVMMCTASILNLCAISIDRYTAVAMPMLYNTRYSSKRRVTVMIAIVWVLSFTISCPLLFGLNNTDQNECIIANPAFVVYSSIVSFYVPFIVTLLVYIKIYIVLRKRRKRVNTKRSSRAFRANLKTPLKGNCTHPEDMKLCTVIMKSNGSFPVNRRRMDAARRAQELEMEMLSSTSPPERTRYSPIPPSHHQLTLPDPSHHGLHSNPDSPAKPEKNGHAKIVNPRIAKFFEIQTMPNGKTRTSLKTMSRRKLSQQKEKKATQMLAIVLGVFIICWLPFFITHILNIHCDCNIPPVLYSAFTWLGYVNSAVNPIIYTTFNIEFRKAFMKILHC
The experiment is described as follows: Receptor binding assay with 3H-ADTN on rat striatal membranes: affinity for the dopamine D2 receptor.
Conditions: not given
More on the design: species or system rat (Sprague Dawley). How it is done:
The effects of the novel compounds can be shown in the receptor binding assay as follows:
Striata from rats (Sprague Dawley, Charles River) were homogenized immediately after removal in 0.32M sucrose solution (0° C.). The homogenate was filtered through gauze, the filtrate was centrifuged at 1000×g (5 min at 4° C.) and the resulting supernatant was centrifuged at 40000×g (4C 10 min) The residue (membranes) was taken up in incubation buffer (50 mM tris-HCl, 1 mM MgCl2 and 0.1% ascorbic acid, pH 7.4) and incubated at 37° C. for 20 min. The residue was subsequently washed 2× with incubation buffer by resuspension and recentrifugation. The membranes were frozen in portions in liquid nitrogen.
The assay mixtures (1 ml) were composed of membranes (380 μg of protein), 1 nM ^3 H-ADTN (NEN, Dreieich Germany, specific radioactivity 1.4 TBq/mmol) and 0.1 μM SCH 23390 (total binding) or a) with the addition of 50 nM spiperone (non-specific binding) or b) with test substance. The mixtures were prepared in triplicate.
After the incubation (40 min at 25° C.) the mixtures were filtered through glass fiber filters (Whatman GF/B) and briefly washed with ice-cold washing buffer (tris-HCl, pH 7.4). The radioactivity retained on the filters was determined by liquid scintillation counting. The non-specific binding comprised about 40-50% of the total binding.
The evaluation of the competition plots and the determination of the dissociation constant took place by iterative non-linear regression analysis based on the "ligand" program (Muson and Rodbard: Anal. Biochem. 107 (1980) 220).
Affinity of the test substances for the dopamine D2 receptor
For `Nc1nnc(CCCCN2CC=C(c3ccccc3)CC2)s1` [Example 18, 2-Amino-5-[4-(1,2,3,6-tetrahydro-4-phenylpyridinyl)-butyl]-1,3,4-thiadiazole], the inhibitory constant (Ki) turned out to be 5 nM.

Consider `Nc1nnc(CCCCCN2CC=C(c3ccccc3)CC2)s1` [Example 19, fumarate], for which the Ki was determined as 10 nM.

The experiment is the same for the next values; noted with them: rat striatum membranes; 1 nM 3H-ADTN; 0.1 μM SCH 23390; non-specific binding with 50 nM spiperone; 40 min at 25° C.; read-out: Affinity of the test substances for the dopamine D2 receptor, Ki.
On to `Nc1nnc(CCN2CC=C(c3ccccc3)CC2)s1` [Example 4, 2-Amino-5-[2-(1,2,3,6-tetrahydro-4-phenylpyridyl)-ethyl]-1,3,4-thiadiazolehydrochloride], for which the inhibition constant (Ki) worked out at 30 nM.

Take `Nc1nnc(CCN2CC=C(c3ccc(Cl)cc3)CC2)s1` [Example 7, 2-Amino-5-[2-(4-(4-chlorophenyl)-l,2,3,6-tetrahydropyridyl)ethyl]-1,3,4-thiadiazole dihydrochloride]: the inhibition constant (Ki) was determined as 30 nM.

Consider `Nc1nnc(CCCN2CC=C(c3ccccc3)CC2)s1` [Example 10, 2-Amino-5-[3-(1,2,3,6-tetrahydro-4-phenylpyridyl)propyl]-1,3,4-thiadiazolehydrochloride], for which the inhibition constant (Ki) is 32 nM.

Turning to `Nc1nnc(CCCCN2CCN(c3ccccn3)CC2)s1` [Example 21, 2-Amino-5-[4-(4-pyridin-2-ylpiperazinyl)butyl]-1,3,4-thiadiazole], the Ki worked out at 44 nM.

`Nc1nnc(CCN2CCC(c3ccccc3)CC2)s1` [Example 24, 2-Amino-5-[2-(4-phenylpiperidinyl)ethyl]-1,3,4-thiadiazole]: the inhibition constant Ki worked out at 37 nM.
